Measured values: patent US20220380341A1, “INHIBITORS OF HIV-1 NEF FOR THE TREATMENT OF HIV DISEASE” (priority 2018, published 2022)
Where two headings read alike, the source gives them in different places.

Tests used:
HIV-1NL4-3 = assay: HIV-1 infectivity assay in TZM-bl reporter cell line (LTR-luciferase, 48 h); format: cell-based; conditions: Human immunodeficiency virus 1, TZM-bl
Procedure, shortened: (§1)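 Read-out is luciferase from an integrated HIV-1 LTR reporter in TZM-bl cells, 48 h after HIV-1NL4-3 infection in the presence of 1 μM compound. Scale set by DMSO-treated wild-type-infected cells (0%) and Nef-defective virus (100% Nef-dependent effect). Cell Titer Blue measures cytotoxicity without virus.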

TZM-bl cell line = format: cell-based; conditions: human, 1 μM
Procedure, shortened: as §1

HIV-1 NefNL4-3 = HIV-1 NefNL4-3 (Human immunodeficiency virus type 1 group M subtype B, UniProt P03406, A33V/T15A/T51N/V11I); assay: Surface plasmon resonance binding to recombinant full-length Nef (NL4-3); conditions: for RU30/RUNef (extent of binding): response units at 30 μM relative to Nef immobilized on the SPR chip
[1] = 1.0 μM, TZM-bl reporter cell line, Table 4, read-out: % Infectivity Inhibition
[2] = 48 h, Table 1, TZM-bl cells, 1 μM, 48 h, 100% = Nef-defective HIV-1, read-out: HIV-1 Infectivity % Inhibition Norm. to Δ-Nef @ 1 μM
[3] = KD, M, Table 4, SPR fit 1:1 Langmuir, KD = koff/kon
[4] = Table 4, 1:1 Langmuir fit, T = 1/koff
[5] = KD, M, Table 4, SPR fit 2-step induced fit, KD = koff/kon × koff2/(koff2 + kon2)
[6] = Nef NL4-3 Binding, SPR 2-state fitting KD, Table 1, 2-step induced-fit model
[7] = Table 4, 2-step induced fit, T = 1/koff2
[8] = read-out: Nef NL4-3 Binding, SPR 1:1 or 2-site fitting KD2, Table 1, 2-site fit, second component

Compound | inhibition at 1 µM (HIV-1NL4-3; [1]) [%] | inhibition at 1 µM (HIV-1NL4-3; [2]) [%] | % Cell Viability (TZM-bl cell line) [%] | Percent Viability @ 1 μM (TZM-bl cells) (TZM-bl cell line) [%] | Kd (HIV-1 NefNL4-3) [nM] | Kd (HIV-1 NefNL4-3; [3]) [nM] | T, minutes (residence time) (HIV-1 NefNL4-3; [4]) | RU30/RUNef (extent of binding) (HIV-1 NefNL4-3) | Kd (HIV-1 NefNL4-3; [5]) [nM] | Kd (HIV-1 NefNL4-3; [6]) [nM] | T, minutes (residence time) (HIV-1 NefNL4-3; [7]) | Kd (HIV-1 NefNL4-3; [8]) [nM] | Nef NL4-3 Binding, SPR 1:1 or 2-site fitting KD1 (HIV-1 NefNL4-3; Table 1, 1:1 Langmuir fit where the KD2 cell says '1 to 1 fitting', else 2-site fit) | inhibition at 1 µM (HIV-1NL4-3; 48 h, Table 2, TZM-bl cells, 1 μM, 48 h, 100% = Nef-defective HIV-1, read-out: HIV-1 Infectivity % Inhibition Norm. to Δ-Nef @ 1 μM) [%]
Oc1c(CCc2ccc(F)cc2)c(CC2CCN(CC(F)(F)F)CC2)nn1-c1nc2ccccc2[nH]1 [Compound I-1004, 1-(1H-1,3-benzodiazol-2-yl)-4-[2-(4-fluorophenyl)ethyl]-3-{[1-(2,2,2-trifluoroethyl)piperidin-4-yl]methyl}-1H-pyrazol-5-ol] | 0 | -12.3 | 100 | 101.3 | 354 | 354 | 2.82E + 01 minutes | 2.27E- 03 |  |  |  |  |  | 
Oc1c(CC2CCN(CC(F)(F)F)CC2)c(-c2ccc(C(F)(F)F)cc2)nn1-c1nc2ccccc2[nH]1 [Compound I-1005, 1-(1H-1,3-benzodiazol-2-yl)-4-{[1-(2,2,2-trifluoroethyl)piperidin-4-yl]methyl}-3-[4-(trifluoromethyl)phenyl]-1H-pyrazol-5-ol] | 49.2 | 49.2 | 93.5 | 93.5 | 91 | 91 | 9.47E + 00 minutes | 1.26E- 03 |  |  |  |  |  | 
Oc1c(CCC2CCN(CC(F)(F)F)CC2)c(-c2ccc(C(F)(F)F)cc2)nn1-c1nc2ccccc2[nH]1 [Compound I-1006, 1-(1H-1,3-benzodiazol-2-yl)-4-{2-[1-(2,2,2-trifluoroethyl)piperidin-4-yl]ethyl}-3-[4-(trifluoromethyl)phenyl]-1H-pyrazol-5-ol] | 83.1 | 83.1 | 85.2 | 85.2 | 472 |  |  | 5.08E- 03 | 1.24 | 1.24 | 1.80E + 04 minutes | 15100 |  | 
O=C(O)c1ccc(-c2nn(-c3nc4ccccc4[nH]3)c(O)c2CCc2ccc(F)cc2)cc1 [Compound I-1101, 4-[1-(1H-1,3-benzodiazol-2-yl)-4-[2-(4-fluorophenyl)ethyl]-5-hydroxy-1H-pyrazol-3-yl]benzoic acid] |  | -9.9 |  | 99.3 | 376 |  |  |  |  |  |  |  |  | 
O=C(NCC1CC1)c1ccc(-c2nn(-c3nc4ccccc4[nH]3)c(O)c2CCc2ccc(F)cc2)cc1 [Compound I-1201, 4-[1-(1H-1,3-benzodiazol-2-yl)-4-[2-(4-fluorophenyl)ethyl]-5-hydroxy-1H-pyrazol-3-yl]-N-(cyclopropylmethyl)benzamide] | 11.8 | 11.8 | 95.4 | 95.4 | 369 |  |  | 2.17E- 02 | 740 | 740 | 2.06E + 03 minutes | 2510 |  | 
Nc1c(CCc2ccc(F)cc2)c(-c2ccc(Cl)cc2)nn1-c1nc2ccccc2[nH]1 [Compound I-1401, 1-(1H-1,3-benzodiazol-2-yl)-3-(4-chlorophenyl)-4-[2-(4-fluorophenyl)ethyl]-1H-pyrazol-5-amine] |  | -34.5 |  | 99.7 |  |  |  |  |  |  |  |  | No Interaction | 
Nc1c(CCC2CCOCC2)c(-c2ccc(F)cc2)nn1-c1cc(C(F)(F)F)n[nH]1 [Compound I-1402] |  |  |  | 102.2 | 4750 |  |  |  |  |  |  |  |  | 8.7
